This assay deals with Neprilysin (Homo sapiens, UniProt P08473). The assay is described as follows: In vitro inhibition of Neutral Endopeptidase.

Molecules are shown by their SMILES. pIC50: −log10 of the molar value.

By pIC50 is commonly meant the negative decadic logarithm of the IC50, by convention in mol/L.

Chain of Neprilysin (P08473 whole entry): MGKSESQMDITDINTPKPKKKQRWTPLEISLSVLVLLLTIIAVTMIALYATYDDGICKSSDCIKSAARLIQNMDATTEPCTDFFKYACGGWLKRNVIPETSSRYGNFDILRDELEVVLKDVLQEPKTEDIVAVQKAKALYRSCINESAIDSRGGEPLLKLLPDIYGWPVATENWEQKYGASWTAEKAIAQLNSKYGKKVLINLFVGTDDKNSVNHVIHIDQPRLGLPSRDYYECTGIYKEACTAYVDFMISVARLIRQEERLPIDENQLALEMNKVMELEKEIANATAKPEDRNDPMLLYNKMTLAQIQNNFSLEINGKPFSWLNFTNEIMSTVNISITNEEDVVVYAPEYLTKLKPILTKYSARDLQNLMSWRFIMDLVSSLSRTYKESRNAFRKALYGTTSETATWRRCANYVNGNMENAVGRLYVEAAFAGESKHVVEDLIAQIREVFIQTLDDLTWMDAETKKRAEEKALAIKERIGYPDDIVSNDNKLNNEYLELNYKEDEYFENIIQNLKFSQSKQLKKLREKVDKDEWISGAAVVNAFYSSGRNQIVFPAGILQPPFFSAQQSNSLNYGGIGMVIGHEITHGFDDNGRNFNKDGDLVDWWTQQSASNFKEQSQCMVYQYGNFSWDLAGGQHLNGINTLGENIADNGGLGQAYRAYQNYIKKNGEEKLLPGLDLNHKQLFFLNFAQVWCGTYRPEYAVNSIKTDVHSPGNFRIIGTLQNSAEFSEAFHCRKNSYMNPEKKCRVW

The compound `O=C(O)C(COc1ccccc1)C[C@@H](Cc1ccc(-c2ccccc2)cc1)C(=O)Nc1nnn[nH]1` (some centres not stated) gave a pIC50 of 8.13.
Regarding `O=C(O)Cc1nnc(NC(=O)[C@H](Cc2ccc(-c3ccccc3)cc2)CC(COc2ccccc2)C(=O)O)s1` (some centres not stated), the pIC50 was 7.04.
Then `COCCOCC(CC1(C(=O)N[C@H]2CC[C@@H](C(=O)O)CC2)CCCC1)C(=O)Oc1ccc2c(c1)CCC2` (some centres not stated), with 7.19; and `CCCCC(C[C@@H](Cc1ccc(-c2ccccc2)cc1)C(=O)Nc1nc(CC(=O)O)cs1)C(=O)O` (stereo in doubt), with 8.01.
Then `CCCCC(C[C@@H](Cc1ccc(-c2ccccc2)cc1)C(=O)Nc1nc(CC(=O)O)cs1)C(=O)O` (single isomer, unassigned; isomer A), with 8.00.
As for `O=C(O)CNC(=O)[C@H](Cc1ccc(-c2ccccc2)cc1)C[C@H](COc1ccccc1)C(=O)O`, the negative logarithm of the IC50 (pIC50) is 8.23. Compared with the last compound, the pIC50 is 0.23 log units higher.
Compound `O=C(O)CNC(=O)[C@H](Cc1ccc(-c2ccccc2)cc1)C[C@@H](COc1ccccc1)C(=O)O` gave a negative-log IC50 (pIC50) of 8.49.
Under `CC(C[C@@H](Cc1ccc(-c2ccccc2)cc1)C(=O)Nc1nc(CC(=O)O)cs1)C(=O)O` (some centres not stated) stands 7.24.
With `O=C(O)Cc1csc(NC(=O)[C@H](Cc2ccc(-c3ccccc3)cc2)C[C@@H](COc2ccccc2)C(=O)O)n1`, the negative logarithm of the IC50 (pIC50) is 9.16.
Then `O=C(O)C(COc1ccccc1)C[C@@H](Cc1ccc(-c2ccccc2)cc1)C(=O)NCc1nn[nH]n1` (some centres not stated), with 7.72; and `O=C(O)CC[C@@H](Cc1ccc(-c2ccccc2)cc1)C(=O)Nc1nc(CC(=O)O)cs1`, with 6.91.
Under `O=C(O)Cc1csc(NC(=O)[C@H](Cc2ccc(-c3ccccc3)cc2)C[C@H](COc2ccccc2)C(=O)O)n1` stands 8.48.

For the origin of these results see ChEMBL document CHEMBL1129104, “Synthesis and evaluation of 2-(biphenylmethyl)glutaric acid amide derivatives as neutral endopeptidase inhibitors” (Bioorg Med Chem Lett, 1996).
